Patent publication US10597388B2, “Pyridazinone herbicides” (FMC CORPORATION, priority 2014, dated 2020)

Key:
Assay in all cases: Test C greenhouse herbicide test, pre- and postemergence
Format in all cases: in vivo
[1] = test system: ryegrass, Italian (Italian ryegrass, Lolium multiflorum)
How it was run: (§1)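 Percent-control ratings (0 none, 100 complete) came from visual comparison with controls held alongside in the greenhouse for 13–15 d. Treatments covered soil application at sowing and foliar application to young plants 2–18 cm tall.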

[2] = test system: morningglory (Ipomoea coccinea)
How it was run: as §1

[3] = test system: johnsongrass (Sorghum halepense)
How it was run: as §1

[4] = test system: waterhemp (common waterhemp, Amaranthus rudis)
How it was run: as §1

[5] = test system: nutsedge, yellow (yellow nutsedge, Cyperus esculentus)
How it was run: as §1

[6] = test system: oilseed rape (Brassica napus)
How it was run: as §1

[7] = test system: lambsquarters (Chenopodium album)
How it was run: as §1

corn (Zea mays) = test system: corn (Zea mays)
How it was run: as §1

[8] = test system: pigweed (Amaranthus retroflexus)
How it was run: as §1

[9] = test system: galium (catchweed bedstraw, Galium aparine)
How it was run: as §1

[10] = test system: blackgrass (Alopecurus myosuroides)
How it was run: as §1

soybean (Glycine max) = test system: soybean (Glycine max)
How it was run: as §1

[11] = test system: foxtail, giant (giant foxtail, Setaria faberii)
How it was run: as §1

[12] = test system: wheat (winter wheat, Triticum aestivum)
How it was run: as §1

[13] = test system: velvetleaf (Abutilon theophrasti)
How it was run: as §1

[14] = test system: crabgrass, large (large crabgrass, Digitaria sanguinalis)
How it was run: as §1

[15] = Postemergence, 31 g ai/ha, scale 0 to 100 (0 no effect, 100 complete control)
[16] = Postemergence, 62 g ai/ha, 0 to 100 scale (0 no effect, 100 complete control)
[17] = Postemergence, 250 g ai/ha, scale 0 to 100, 0 is no effect, 100 is complete control
[18] = Preemergence, 31 g ai/ha, scale 0 to 100, 0 is no effect, 100 is complete control
[19] = Preemergence, 62 g ai/ha, scale 0 to 100, 0 is no effect, 100 is complete control
[20] = Preemergence, 125 g ai/ha, scale 0 to 100, 0 is no effect, 100 is complete control
[21] = postemergence, 125 g ai/ha, scale 0 to 100, 0 no effect, 100 complete control
[22] = Preemergence, 250 g ai/ha, scale 0 to 100 (0 no effect, 100 complete control)
[23] = Postemergence, 31 g ai/ha, 0 to 100 scale (0 no effect, 100 complete control)
[24] = Postemergence, 125 g ai/ha, scale 0 to 100, 0 is no effect, 100 is complete control
[25] = Postemergence, 250 g ai/ha, scale 0 to 100, 0 no effect, 100 complete control, 13 to 15 d
[26] = postemergence, 62 g ai/ha, scale 0 to 100, 0 no effect, 100 complete control

CSCC(=O)Oc1c(C)nn(C)c(=O)c1-c1cccc2ccccc12 [Compound 171]
40: Corn plant response rating (corn (Zea mays); [22]) | Plant response rating, Blackgrass [10, 19] | Blackgrass plant response rating [10, 21] | Crabgrass, Large plant response rating [14, 21]
80: Pigweed plant response rating [8, 16] | Crabgrass, Large plant response rating [14, 22]
25: Foxtail, Giant plant response rating [11, 16]
20: Plant response rating, Johnsongrass [3, 17] | Plant response rating, Corn (corn (Zea mays); [17]) | Plant response rating, Wheat [12, 17] | Crabgrass, Large plant response rating [14, 16]
35: Johnsongrass plant response rating [3, 22] | Plant response rating, Velvetleaf [13, 15]
50: Plant response rating, Nutsedge, Yellow [5, 15] | Plant response rating, Oilseed Rape [6, 20] | Plant response rating, Soybean (soybean (Glycine max); [17]) | Foxtail, Giant plant response rating [11, 21]
0: Plant response rating, Johnsongrass [3, 18] | Plant response rating, Oilseed Rape [6, 15] | Oilseed Rape plant response rating [6, 16] | Plant response rating, Oilseed Rape [6, 18] | Oilseed Rape plant response rating [6, 21] | Plant response rating, Corn (corn (Zea mays); [15]) | Corn plant response rating (corn (Zea mays); [16]) | Plant response rating, Corn (corn (Zea mays); [18]) | Plant response rating, Corn (corn (Zea mays); [19]) | Plant response rating, Corn (corn (Zea mays); [20]) | Plant response rating, Soybean (soybean (Glycine max); [19]) | Plant response rating, Wheat [12, 15] | Plant response rating, Wheat [12, 18] | Plant response rating, Crabgrass, Large [14, 18]
30: Plant response rating, Oilseed Rape [6, 17] | Blackgrass plant response rating [10, 16] | Plant response rating, Blackgrass [10, 18] | Soybean plant response rating (soybean (Glycine max); [16]) | Wheat plant response rating [12, 21]
5: Plant response rating, Johnsongrass [3, 15] | Johnsongrass plant response rating [3, 16] | Plant response rating, Johnsongrass [3, 19] | Plant response rating, Oilseed Rape [6, 19] | Plant response rating, Blackgrass [10, 15] | Plant response rating, Wheat [12, 19] | Plant response rating, Crabgrass, Large [14, 15]
98: Morningglory plant response rating [2, 22] | Waterhemp plant response rating [4, 21] | Plant response rating, Lambsquarters [7, 18] | Lambsquarters plant response rating [7, 21] | Plant response rating, Galium [9, 20]
15: Johnsongrass plant response rating [3, 21] | Wheat plant response rating [12, 16]
85: Plant response rating, Morningglory [2, 18] | Plant response rating, Waterhemp [4, 18]
45: Plant response rating, Nutsedge, Yellow [5, 18] | Plant response rating, Blackgrass [10, 20] | Plant response rating, Wheat [12, 20] | Plant response rating, Crabgrass, Large [14, 19]
10: Plant response rating, Johnsongrass [3, 20] | Corn plant response rating (corn (Zea mays); [21]) | Plant response rating, Soybean (soybean (Glycine max); [15]) | Plant response rating, Foxtail, Giant [11, 15]
55: Plant response rating, Nutsedge, Yellow [5, 19] | Plant response rating, Blackgrass [10, 17] | Plant response rating, Soybean (soybean (Glycine max); [20]) | Plant response rating, Crabgrass, Large [14, 17]
95: Ryegrass, Italian plant response rating [1, 16] | Plant response rating, Ryegrass, Italian [1, 17] | Plant response rating, Ryegrass, Italian [1, 19] | Plant response rating, Ryegrass, Italian [1, 20] | Ryegrass, Italian plant response rating [1, 21] | Plant response rating, Morningglory [2, 20] | Waterhemp plant response rating [4, 16] | Plant response rating, Waterhemp [4, 19] | Lambsquarters plant response rating [7, 16] | Plant response rating, Lambsquarters [7, 19] | Plant response rating, Lambsquarters [7, 20] | Plant response rating, Galium [9, 15] | Galium plant response rating [9, 16] | Plant response rating, Galium [9, 17] | Galium plant response rating [9, 21] | Plant response rating, Velvetleaf [13, 20]
60: Plant response rating, Pigweed [8, 15] | Plant response rating, Pigweed [8, 19] | Soybean plant response rating (soybean (Glycine max); [21]) | Plant response rating, Crabgrass, Large [14, 20]
90: Plant response rating, Ryegrass, Italian [1, 15] | Plant response rating, Ryegrass, Italian [1, 18] | Plant response rating, Morningglory [2, 15] | Plant response rating, Morningglory [2, 19] | Nutsedge, Yellow plant response rating [5, 22] | Oilseed Rape plant response rating [6, 22] | Plant response rating, Lambsquarters [7, 15] | Pigweed plant response rating [8, 21] | Plant response rating, Galium [9, 18] | Plant response rating, Galium [9, 19] | Blackgrass plant response rating [10, 22] | Plant response rating, Velvetleaf [13, 19]
100: Morningglory plant response rating [2, 16] | Plant response rating, Morningglory [2, 17] | Morningglory plant response rating [2, 21] | Plant response rating, Waterhemp [4, 17] | Plant response rating, Waterhemp [4, 20] | Plant response rating, Lambsquarters [7, 17] | Lambsquarters plant response rating [7, 22] | Plant response rating, Pigweed [8, 17] | Plant response rating, Pigweed [8, 20] | Pigweed plant response rating [8, 22] | Galium plant response rating [9, 22] | Plant response rating, Velvetleaf [13, 17] | Velvetleaf plant response rating [13, 21]
70: Plant response rating, Nutsedge, Yellow [5, 20] | Plant response rating, Pigweed [8, 18] | Velvetleaf plant response rating [13, 16] | Plant response rating, Velvetleaf [13, 18]
75: Plant response rating, Waterhemp [4, 15] | Nutsedge, Yellow plant response rating [5, 16] | Nutsedge, Yellow plant response rating [5, 21] | Plant response rating, Foxtail, Giant [11, 17]

Cc1cc(C)c2ccccc2c1-c1c(O)cnn(C)c1=O [Compound 51]
10: Plant response rating, Blackgrass [10, 25] | Plant response rating, Crabgrass, Large [14, 24] | Plant response rating, Crabgrass, Large [14, 25]
95: Plant response rating, Galium [9, 25]
15: Plant response rating, Foxtail, Giant [11, 24]
30: Waterhemp plant response rating [4, 23]
35: Ryegrass, Italian plant response rating [1, 23] | Nutsedge, Yellow plant response rating [5, 23] | Plant response rating, Foxtail, Giant [11, 25]
70: Plant response rating, Ryegrass, Italian [1, 25] | Nutsedge, Yellow plant response rating [5, 26] | Plant response rating, Pigweed [8, 24] | Plant response rating, Velvetleaf [13, 25]
65: Plant response rating, Lambsquarters [7, 24] | Pigweed plant response rating [8, 26]
80: Plant response rating, Waterhemp [4, 24]
0: Johnsongrass plant response rating [3, 23] | Plant response rating, Johnsongrass [3, 24] | Plant response rating, Johnsongrass [3, 25] | Johnsongrass plant response rating [3, 26] | Oilseed Rape plant response rating [6, 23] | Corn plant response rating (corn (Zea mays); [23]) | Plant response rating, Corn (corn (Zea mays); [24]) | Plant response rating, Corn (corn (Zea mays); [25]) | Corn plant response rating (corn (Zea mays); [26]) | Blackgrass plant response rating [10, 23] | Plant response rating, Blackgrass [10, 24] | Blackgrass plant response rating [10, 26] | Soybean plant response rating (soybean (Glycine max); [23]) | Plant response rating, Soybean (soybean (Glycine max); [24]) | Plant response rating, Soybean (soybean (Glycine max); [25]) | Soybean plant response rating (soybean (Glycine max); [26]) | Wheat plant response rating [12, 23] | Plant response rating, Wheat [12, 24] | Plant response rating, Wheat [12, 25] | Wheat plant response rating [12, 26] | Crabgrass, Large plant response rating [14, 23]
55: Morningglory plant response rating [2, 26]
50: Ryegrass, Italian plant response rating [1, 26] | Waterhemp plant response rating [4, 26] | Lambsquarters plant response rating [7, 26] | Plant response rating, Velvetleaf [13, 24]
90: Plant response rating, Nutsedge, Yellow [5, 25] | Plant response rating, Galium [9, 24] | Galium plant response rating [9, 26]
5: Morningglory plant response rating [2, 23] | Plant response rating, Oilseed Rape [6, 24] | Plant response rating, Oilseed Rape [6, 25] | Oilseed Rape plant response rating [6, 26] | Lambsquarters plant response rating [7, 23] | Foxtail, Giant plant response rating [11, 23] | Foxtail, Giant plant response rating [11, 26] | Velvetleaf plant response rating [13, 23] | Crabgrass, Large plant response rating [14, 26]
60: Plant response rating, Ryegrass, Italian [1, 24] | Pigweed plant response rating [8, 23]
75: Plant response rating, Morningglory [2, 24] | Plant response rating, Morningglory [2, 25]
85: Plant response rating, Nutsedge, Yellow [5, 24] | Plant response rating, Pigweed [8, 25] | Galium plant response rating [9, 23]
20: Velvetleaf plant response rating [13, 26]
